Measurements taken from patent US4237116A, “Combination of thiopeptin and rumensin to improve ruminant feed efficiency” (Merck & Co., Inc., priority 1979, dated 1980).

Tested on: ruminants (cattle)
Experiment: Propionate content of rumen fluid in cattle given medicated feed (high roughage diet, then shifted to high grain diet)
Assay type: in vivo
Experimental: The synergistic effect of the combination of thiopeptin and rumensin has been observed by administering the two compounds to ruminants on a controlled diet and taking periodic samples of rumen fluid. The amount of each of the volatile fatty acids present in the rumen fluid is measured and compared with that of animals taking no medication and also with animals given only one of the two compounds. This effect has been observed in ruminants on diets of both the high roughage and high grain types. […] Animals given the same diet but with 8.25 ppm of thiopeptin in the diet for 7 days had 25.87 mole % of propionate. Animals given 16.5 ppm of rumensin for 7 days had 25.81 mole % of propionate. […] In the same test, the animal's feed was then shifted to a high grain diet and after 2 days rumen samples again taken. The control animals had 21.73 mole % of propionate. The thiopeptin treated animals (at the same dose as the first test) had 27.31 mole % propionate. The rumensin treated animals (again at the same dose as previously) had 25.95 mole % of propionate.

[1] = high roughage diet, drug in the diet for 7 days, thiopeptin 8.25 ppm, rumensin 16.5 ppm, combination 8.25 ppm + 16.5 ppm, control animals 24.16 mole %
[2] = same test after shift to high grain diet, rumen samples after 2 days, same doses (thiopeptin 8.25 ppm, rumensin 16.5 ppm, combination of both), control animals 21.73 mole %

Molecule	propionate in the rumen fluid [1] [mole %]	propionate in the rumen fluid [2] [mole %]
CC[C@@]1([C@H]2O[C@H]([C@H]3O[C@@](O)(CO)[C@H](C)C[C@@H]3C)C[C@H]2C)CC[C@H]([C@@]2(C)CC[C@]3(C[C@H](O)[C@@H](C)[C@@H]([C@H](C)[C@H](OC)[C@@H](C)C(=O)[O-])O3)O2)O1.[Na+] [rumensin, Rumensin]	25.81	25.95
Thiopeptin	25.87	27.31
